Laboratory results: ChEMBL document CHEMBL1127250, “3,4-Di-o-()-camphanoyl-(+)-ciskhellactone and related compounds: A. new class of potent anti-HIV agents” (Bioorg Med Chem Lett, 1994)

Columns and labels:
H9 [1] = assay: Compound was tested for inhibitory activity against HIV-1 replication in H9 lymphocyte cells; format: functional, cell-based; details: Homo sapiens
H9 [2] = assay: Effective concentration against HIV-1 replication in H9 lymphocyte cells was determined; format: functional, cell-based; details: Homo sapiens
[3] = Therapeutic index was determined; details: read-out: TI
H9 [4] = assay: Compound was tested for inhibitory activity against HIV-1 replication in H9 lymphocyte cells; Activity range >32 but <160; format: functional, cell-based; details: Homo sapiens
U-937 = assay: Effective concentration against HIV-1 infection in U-937 cell line was determined; format: functional, cell-based; details: Homo sapiens
[5] = Therapeutic index was determined; Value is >3,125 but < 15,625; details: read-out: TI
[6] = Therapeutic index was determined; Value is >222 but < 1,111; details: read-out: TI
[7] = Effective concentration against HIV-1 infection in peripheral blood mononuclear cells was determined; format: functional; details: Homo sapiens
[8] = Therapeutic index was determined; Value is >78049 but < 390244; details: read-out: TI
H9 [9] = assay: Effective concentration against HIV-1 replication in H9 lymphocyte cells was determined; Activity >6.4 but < 32; format: functional, cell-based; details: Homo sapiens
H9 [10] = assay: Compound was tested for inhibitory activity against HIV-1 replication in H9 lymphocyte cells; Activity >6.4 but < 32; format: functional, cell-based; details: Homo sapiens

| SMILES | IC50 (H9 [1]) [µM] | EC50 (H9 [2]) [µM] | selectivity ratio [3] | further results |
| --- | --- | --- | --- | --- |
| CC1(C)Oc2ccc3ccc(=O)oc3c2[C@@H](OC(=O)C23CCC(C)(C(=O)O2)C3(C)C)[C@@H]1OC(=O)C12CCC(C)(C(=O)O1)C2(C)C (stereo not given in full) | > 32 | 32 | > 1 | – |
| CC1(C)Oc2ccc3ccc(=O)oc3c2[C@H](OC(=O)C23CCC(C)(C(=O)O2)C3(C)C)[C@H]1OC(=O)C12CCC(C)(C(=O)O1)C2(C)C (stereo not given in full) | – | – | > 1 | EC50 (H9 [9]): < 32 µM; IC50 (H9 [10]): < 32 µM |
| CC1(C)Oc2ccc3ccc(=O)oc3c2[C@H](OC(=O)C23CCC(C)(C(=O)O2)C3(C)C)[C@@H]1OC(=O)C12CCC(C)(C(=O)O1)C2(C)C (stereo not given in full) | 1700 | 51 | > 33.3 | – |

Continued by falling EC50 (H9 [2]), values first:

| IC50 (H9 [1]) [µM] | EC50 (H9 [2]) [µM] | SMILES | selectivity ratio [3] | further results |
| --- | --- | --- | --- | --- |
| > 52 | 1.3 | CC(=O)O[C@@H]1[C@H](OC(=O)CC(C)C)c2c(ccc3ccc(=O)oc23)OC1(C)C [SUKSDORFIN] | > 40 | – |
| – | 0.15 | Cc1cn([C@H]2C[C@H](N=[N+]=[N-])[C@@H](CO)O2)c(=O)[nH]c1=O [ZIDOVUDINE] | – | – |
| – | 0.00041 | CC1(C)Oc2ccc3ccc(=O)oc3c2[C@@H](OC(=O)C23CCC(C)(C(=O)O2)C3(C)C)[C@H]1OC(=O)C12CCC(C)(C(=O)O1)C2(C)C (stereo not given in full) | – | IC50 (H9 [4]): < 160 µM; EC50 (U-937): 0.0021 µM; selectivity ratio [5]: > 3120; selectivity ratio [6]: > 222; EC50 [7]: 0.029 µM; selectivity ratio [8]: < 390000 |
